We go through three molecules from paper PMC1470342 (Environmental Health Perspectives, 1997).

Data set [1] concerns the target T1, Gal4-human ER chimera (Gal4-HEGO) (Homo sapiens, UniProt P03372).
T1 sequence (P03372 311-547 limits assumed): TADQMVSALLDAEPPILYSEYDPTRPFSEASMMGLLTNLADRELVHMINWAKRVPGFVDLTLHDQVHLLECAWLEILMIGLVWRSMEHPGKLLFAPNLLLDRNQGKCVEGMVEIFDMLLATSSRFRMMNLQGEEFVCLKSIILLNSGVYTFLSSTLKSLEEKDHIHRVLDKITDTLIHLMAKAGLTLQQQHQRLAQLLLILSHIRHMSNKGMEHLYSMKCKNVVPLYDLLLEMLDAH
Nature of the data set: Recombinant receptor/reporter gene assay. The format is cell-based.

Data set [2] has as its system ovariectomized CD-1 mice. Nature of the data set: Vaginal cell cornification assay. The following applies: 202, 16 and 1.7 mg/kg. The class given is in vivo, mouse.
In data set [3] the test system is ovariectomized CD-1 mice. Nature of the data set: Mouse uterotrophic assay. The format is in vivo. Particulars: 202 mg/kg, p < 0.0002.
Data set [4] has as its system MCF-7 cells. Nature of the data set: GC-MS analysis of media from PCB 104-treated transfected MCF-7 cells. The following applies: MCF-7 cells incubated with PCB 104 for 8, 24, 48 hr; SIM GC-MS.
Where [5] appears, read: co-treatment 1 nM E2 plus 0.1, 1, 10 pM (printed).

As to `Oc1cc(Cl)c(-c2c(Cl)cc(Cl)cc2Cl)c(Cl)c1` [HO-PCB 104, 2,4,6,2',6'-pentachloro-4-biphenylol], in data set [1] (co-treatment 1 nM E2 plus 10 pM (printed; 10 microM in abstract)), the “effect on E2-induced luciferase activity compared to E2 alone” value (“effect … compared to E2 alone” for short) was “additivity”.

For the molecule `Clc1cc(Cl)c(-c2c(Cl)cccc2Cl)c(Cl)c1` [PCB 104, 2,4,6,2',6'-pentachlorobiphenyl], in data set [1] (setting [5]), the “effect … compared to E2 alone” value is reported as “no effect”. In data set [2], the “vaginal cell cornification, dose response” value is “induced vaginal epithelial cell cornification”. The “uterine wet weight versus vehicle control” value in data set [3] is “increased uterine wet weight”. The “presence of metabolite HO-PCB 104 or hydroxylated isomers in media extracts” value in data set [4] was “failed to detect”.

On to `Clc1cc(Cl)c(-c2c(Cl)cc(Cl)cc2Cl)c(Cl)c1` [PCB 155, 2,4,6,2',4',6'-hexachlorobiphenyl], for which, in data set [1] (alone, 24 hr), the “estrogenic activity in reporter gene assay” value was “minimal”. Besides, the “effect … compared to E2 alone” value in data set [1] (setting [5]) is “significant antiestrogenic activity”.
